Reference: article PMC8562313, “Cytotoxicity of Amino‐BODIPY Modulated via Conjugation with 2‐Phenyl‐3‐Hydroxy‐4(1H)‐Quinolinones” (ChemistryOpen, 2021)
pIC50: −log10 of the molar value. Read-outs that look alike come from different tables or passages of the source.

Assays:
cancer cell lines = conditions: cited from earlier work
[1] = system: BJ‐LD (low‐density seeding variant); test: Toxicity to non-tumor fibroblasts BJ-LD; assay type: cell-based; conditions: Homo sapiens, Fibroblast, higher proliferation, no contact inhibition
Procedure: (§1) Finally, the amino‐BODIPY 16 and all prepared conjugates 1–15 were tested for cytotoxic activity against selected cancer cell lines (Table 1). The tests were performed on cancer cell lines derived from solid tumors as well as hematological malignancies: CCRF‐CEM (acute lymphoblastic leukemia), K562 (chronic myeloid leukemia), A549 (lung adenocarcinoma), colorectal carcinoma cell lines HCT116 with and without functional p53 protein HCT116p53, respectively. The panel also included chemoresistant subclone CCRF‐CEM‐DNR (resistant to daunorubicine) overexpressing P‐glycoprotein and/or lung resistance‐related protein (LRP), which are pumps or detoxifying systems responsible for the most common forms of clinical resistance. To evaluate non‐tumor cells′ toxicity, we used human skin fibroblast cell line BJ and lung fibroblast cell line MRC‐5. […] This dye is also slightly toxic to normal fibroblast BJ and MRC with IC50>40 μM and low‐density seeding variants BJ‐LD and MRC‐LD with higher proliferation and no contact inhibition. Connection of amino‐BODIPY 16 with 3‐HQs via non‐cleavable maleimide linker (conjugates 6–10) as well as via cleavable linker (compounds 11–15) causes higher selectivity toward CCRF‐CEM lines. […] The selectivity of conjugates toward leukemia cells could be caused by interaction with a specific target for the CCRF‐CEM or K562 cells, respectively, or by particular transport to these cell lines. The later reason could explain the lower toxicity of amino‐BODIPY released from the conjugate compared to free amino‐BODIPY 16 directly applied to the cells.

[2] = system: HCT116p53 (colorectal carcinoma); test: Cytotoxic activity against HCT116p53; assay type: cell-based; conditions: average of at least three independent experiments
Procedure: as §1

[3] = system: lung fibroblast cell line MRC‐5; test: Toxicity to non-tumor fibroblasts MRC; assay type: cell-based, human
Procedure: as §1

U2OS = test: Cytotoxic activity against U2OS; assay type: cell-based; conditions: Homo sapiens, average of at least three independent experiments
[4] = system: CCRF‐CEM (acute lymphoblastic leukemia); test: Cytotoxic activity against CCRF-CEM; assay type: cell-based; conditions: Homo sapiens, average of at least three independent experiments
Procedure: as §1

[5] = system: HCT116 (colorectal carcinoma); test: Cytotoxic activity against HCT116; assay type: cell-based; conditions: Homo sapiens, HCT-116; average of at least three independent experiments
Procedure: as §1

[6] = system: MRC‐LD (low‐density seeding variant); test: Toxicity to non-tumor fibroblasts MRC-LD; assay type: cell-based; conditions: Homo sapiens, Fibroblast, higher proliferation, no contact inhibition
Procedure: as §1

K562‐TAX = test: Cytotoxic activity against K562-TAX; assay type: cell-based; conditions: average of at least three independent experiments
[7] = system: skin fibroblast cell line BJ; test: Toxicity to non-tumor fibroblasts BJ; assay type: cell-based, human
Procedure: as §1

[8] = system: A549 (lung adenocarcinoma); test: Cytotoxic activity against A549; assay type: cell-based; conditions: Homo sapiens, average of at least three independent experiments
Procedure: as §1

[9] = system: CCRF‐CEM‐DNR (resistant to daunorubicine); test: Cytotoxic activity against CEM-DNR; assay type: cell-based; conditions: Homo sapiens, daunorubicine-resistant subclone, average of at least three independent experiments
Procedure: as §1

[10] = system: K562 (chronic myeloid leukemia); test: Cytotoxic activity against K562; assay type: cell-based; conditions: Homo sapiens, average of at least three independent experiments
Procedure: as §1

[11] = GSH-mediated cleavage monitored by LC/MS; assay type: physicochemical; conditions: 5 mM GSH, 5 μM conjugate 11 in HEPES buffer, 7.4 pH, 37 °C
From the text: As reported previously, the GSH mediated cleavage of the disulfide linker results in the release of the 3‐HQ derivative together with the Amino‐BODIPY.[30] […] As the mechanism of GSH‐mediated cleavage and LC/MS analysis in Figure 2A and 2B depict nucleophilic thiol group on glutathione attacks the disulfide bond resulting in the formation of GSH adducts 19 and 20. Intermediate 19 further reacts with excess of GSH and self‐immolative linker is cyclized while free Amino‐BODIPY 16 is released.
Figure 2 (A) Mechanism of GSH‐mediated cleavage of conjugate 11 (5 mM GSH, 5 μM conjugate 11 in HEPES buffer, 7.4 pH, 37 °C). (B) Time‐dependent stability of compounds 1, 11, 16, 19 and 20 monitored by LC/MS. (C) Excitation/emission spectra of the conjugate 11 and the released Amino‐BODIPY 16 enabling the OFF‐ON fluorescence effect when excitation at 485 nm and emission at 530 nm is applied.

[12] = Homo sapiens, MRC5, non-tumor lung fibroblasts

SMILES	Activity and selectivity toward cancer cells (cancer cell lines)	Activity and selectivity against cancer cell lines (cancer cell lines)	Activity against various cancer cell lines (cancer cell lines; reported previously, no reference given)	Cytotoxicity against cancer cells (cancer cell lines)	Activity against cancer cells (cancer cell lines)	pIC50 [1]	pIC50 [2]	pIC50 [3, 12]	pIC50 (U2OS)	pIC50 [4]	pIC50 [5]	pIC50 [6]	pIC50 (K562‐TAX)	pIC50 ([7]; Homo sapiens, Skin fibroblast)	pIC50 [8]	pIC50 [9]	pIC50 [10]	pIC50 ([3]; non-tumor lung fibroblasts)	pIC50 [7]	Stability of cleavage intermediate by LC/MS [11]
NC(=O)c1cc(-c2[nH]c3ccccc3c(=O)c2O)ccc1N1CCCCC1 [2‐(3‐carboxamide‐4‐piperid‐1‐ylphenyl)‐3‐hydroxy‐4(1H)‐quinolinone]	significant activity and increased selectivity																			
O=c1c(O)c(-c2ccc(N3CCCCC3)c([N+](=O)[O-])c2)[nH]c2ccccc12 [2‐(3‐nitro‐4‐piperid‐1‐ylphenyl)‐3‐hydroxy‐4(1H)‐quinolinone]		significant activity but low selectivity																		
Nc1c(Cl)cc(-c2[nH]c3ccccc3c(=O)c2O)cc1Cl [2‐(4‐amino‐3,5‐dichlorophenyl)‐3‐hydroxy‐4(1H)‐quinolinone]			active																	
O=c1c(O)c(-c2ccc(F)cc2)[nH]c2ccccc12 [2‐(4‐fluorophenyl)‐3‐hydroxy‐4(1H)‐quinolinone]				low cytotoxicity																
O=c1c(O)c(-c2ccccc2)[nH]c2ccccc12 [2‐phenyl‐3‐hydroxy‐4(1H)‐quinolinone]					no activity															
Cc1cc(C)n2c1C=C1C=CC(NC(=O)OCCCN3C(=O)CC(SCC(NC(=O)c4ccc5c(=O)c(O)c(-c6ccccc6)[nH]c5c4)C(N)=O)C3=O)=[N+]1[B-]2(F)F (stereo not drawn) [Compound 6]						< 4.30	< 4.30	< 4.30	< 4.30	4.84	< 4.30	< 4.30	< 4.30	< 4.30	< 4.30	< 4.30	< 4.30			
Cc1cc(C)n2c1C=C1C=CC(NC(=O)OCCCN3C(=O)CC(SCC(NC(=O)c4ccc5c(=O)c(O)c(-c6ccc(F)cc6)[nH]c5c4)C(N)=O)C3=O)=[N+]1[B-]2(F)F (stereo not drawn) [Compound 7]						< 4.30	< 4.30	< 4.30	< 4.30	5.20	< 4.30	< 4.30	< 4.30	< 4.30	< 4.30	< 4.30	< 4.30			
Cc1cc(C)n2c1C=C1C=CC(NC(=O)OCCCN3C(=O)CC(SCC(NC(=O)c4ccc5c(=O)c(O)c(-c6cc(Cl)c(N)c(Cl)c6)[nH]c5c4)C(N)=O)C3=O)=[N+]1[B-]2(F)F (stereo not drawn) [Compound 8]						< 4.30	< 4.30	< 4.30	< 4.30	4.90	< 4.30	< 4.30	< 4.30	< 4.30	< 4.30	< 4.30	< 4.30			
Cc1cc(C)n2c1C=C1C=CC(NC(=O)OCCCN3C(=O)CC(SCC(NC(=O)c4ccc5c(=O)c(O)c(-c6ccc(N7CCCCC7)c([N+](=O)[O-])c6)[nH]c5c4)C(N)=O)C3=O)=[N+]1[B-]2(F)F (stereo not drawn) [Compound 9]							< 4.30	< 4.30	< 4.30	< 4.30	< 4.30		< 4.30	< 4.30	< 4.30	< 4.30	5.39			
Cc1cc(C)n2c1C=C1C=CC(NC(=O)OCCCN3C(=O)CC(SCC(NC(=O)c4ccc5c(=O)c(O)c(-c6ccc(N7CCCCC7)c(C(N)=O)c6)[nH]c5c4)C(N)=O)C3=O)=[N+]1[B-]2(F)F (stereo not drawn) [Compound 10]						< 4.30	< 4.30	< 4.30	< 4.30	5.29	< 4.30	< 4.30	4.30	< 4.30	< 4.30	< 4.30	< 4.30			
Cc1cc(C)n2c1C=C1C=CC(NC(=O)OCCSSCC(NC(=O)c3ccc4c(=O)c(O)c(-c5ccccc5)[nH]c4c3)C(N)=O)=[N+]1[B-]2(F)F (stereo not drawn) [Compound 11]						< 4.30	< 4.30	< 4.30	< 4.30	4.70	< 4.30	< 4.30	4.40	< 4.30	4.30	4.46	4.30			
Cc1cc(C)n2c1C=C1C=CC(NC(=O)OCCSSCC(NC(=O)c3ccc4c(=O)c(O)c(-c5ccc(F)cc5)[nH]c4c3)C(N)=O)=[N+]1[B-]2(F)F (stereo not drawn) [Compound 12]						< 4.30	4.30	< 4.30	4.37	5.09	< 4.30	< 4.30	4.47	< 4.30	4.33	4.58	4.35			
Cc1cc(C)n2c1C=C1C=CC(NC(=O)OCCSSCC(NC(=O)c3ccc4c(=O)c(O)c(-c5cc(Cl)c(N)c(Cl)c5)[nH]c4c3)C(N)=O)=[N+]1[B-]2(F)F (stereo not drawn) [Compound 13]						< 4.30	< 4.30	< 4.30	< 4.30	5.59	< 4.30	< 4.30	4.38	< 4.30	< 4.30	4.40	4.38			
Cc1cc(C)n2c1C=C1C=CC(NC(=O)OCCSSCC(NC(=O)c3ccc4c(=O)c(O)c(-c5ccc(N6CCCCC6)c([N+](=O)[O-])c5)[nH]c4c3)C(N)=O)=[N+]1[B-]2(F)F (stereo not drawn) [Compound 14]						< 4.30	4.37	< 4.30	4.36	5.82	4.40	< 4.30	4.39	< 4.30	4.33	4.42	4.52			
Cc1cc(C)n2c1C=C1C=CC(NC(=O)OCCSSCC(NC(=O)c3ccc4c(=O)c(O)c(-c5ccc(N6CCCCC6)c(C(N)=O)c5)[nH]c4c3)C(N)=O)=[N+]1[B-]2(F)F (stereo not drawn) [Compound 15]						< 4.30	< 4.30	< 4.30	< 4.30	< 4.30	< 4.30	< 4.30	4.34	< 4.30	< 4.30	4.33	< 4.30			
Cc1cc(C)n2c1C=C1C=CC(N)=[N+]1[B-]2(F)F [Compound 16, amino‐BODIPY]						4.55	4.89	< 4.40	4.70	5.37	4.94	4.57	5.19	< 4.40	4.33	5.29	5.48	4.40	4.30	
NC(=O)C(CSSC[C@H](NC(=O)CC[C@H](N)C(=O)O)C(=O)NCC(=O)O)NC(=O)c1ccc2c(=O)c(O)c(-c3ccccc3)[nH]c2c1 (stereo partly drawn) [Compound 20]																				relatively stable
